# Test results published in PMC4549712, “Inhibition of human GLUT1 and GLUT5 by plant carbohydrate products; insights into transport specificity” (Scientific Reports, 2015).
# “Also recorded” adds a separate entry of the source.
# Key:
# human GLUT4 = system: human GLUT4; set-up: method as in PMID 1716731; settings: cited from earlier work
# human GLUT2 = system: human GLUT2; set-up: method as in PMID 1716731; settings: cited from earlier work
# GLUT1 [1] = system: GLUT1; set-up: method as in PMID 9286080; settings: cited from earlier work
# GLUT5 [2] = system: GLUT5; set-up: method as in PMID 9166863; settings: cited from earlier work
# [3] = system: glucose/H+ symporter GlcPSe; set-up: method as in PMID 24127585; settings: cited from earlier work
# human GLUT1 = target: T1, human GLUT1 (Homo sapiens, UniProt P11166); assay: entrance counter-flow transport assay, GLUT1-mediated glucose transport in proteoliposomes; assay type: biochemical; settings: for inhibition of GLUT1 glucose transport activity: 20 mM
# T1 construct: Full length DNA was subcloned into pFastBac1 (Life Technologies) vector with a N-terminal hexahistidine tag; hexahistidine (thrombin-cleavable) (N, cleaved yes); made in house; host or cells: Sf21 insect cells (baculovirus, pFastBac1)
# T1 sequence (P11166 1-492): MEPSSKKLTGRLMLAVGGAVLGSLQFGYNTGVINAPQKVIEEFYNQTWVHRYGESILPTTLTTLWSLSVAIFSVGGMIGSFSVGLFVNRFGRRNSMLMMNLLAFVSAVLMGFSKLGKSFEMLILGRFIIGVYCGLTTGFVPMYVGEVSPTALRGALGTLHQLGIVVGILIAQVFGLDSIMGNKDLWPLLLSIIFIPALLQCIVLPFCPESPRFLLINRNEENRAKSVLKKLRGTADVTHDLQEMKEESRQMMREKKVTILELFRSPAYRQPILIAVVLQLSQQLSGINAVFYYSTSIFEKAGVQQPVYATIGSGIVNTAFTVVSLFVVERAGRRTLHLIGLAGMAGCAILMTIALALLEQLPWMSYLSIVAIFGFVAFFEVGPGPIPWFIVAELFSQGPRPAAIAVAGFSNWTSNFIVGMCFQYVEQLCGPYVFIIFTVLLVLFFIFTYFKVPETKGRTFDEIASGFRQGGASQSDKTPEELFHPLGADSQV
# Procedure: Human GLUT1 and GLUT5 were expressed recombinantly in insect cell culture. The purified proteins were reconstituted into proteoliposomes. To measure the inhibition of GLUT1 or GLUT5 transport activity we used entrance counter-flow transport assay. In GLUT1 and GLUT5 proteoliposomes, substrate transport reached steady state after one minute incubation at room temperature.
# (§1) Proteoliposomes were generated according to the protocol from[30] with minor modifications. Liposomes were produced from a 95/5% (w/w) mix of soy phosphatidylcholine and cholesterol (Avanti Polar Lipids). Briefly, hexane-washed and vacuum-dried lipids were resuspended to 20 mg/ml in 100 mM KPi (pH 7.5), and then subjected to 11 freeze-and-thaw cycles in liquid nitrogen and room temperature water. The lipid mixture was extruded through a 0.1 μm polycarbonate filter. Prepared liposomes were destabilized with 4 mM Triton X-100 and mixed with purified protein in a 100:1 (w/w) ratio in 100 mM KPi (pH 7.5) 20% (v/v) glycerol, 200 mM (glucose or fructose). Detergent was removed by several additions of SM2 BioBeads (BioRad) and incubated overnight at 4 °C. After filtering out the BioBeads, proteoliposomes were diluted with 100 mM KPi (pH 7.5) 200 mM (glucose or fructose), and then collected by ultracentrifugation, at 200,000 × g and 4 °C, for 1 hour. The proteoliposomes pellet was resuspended in the above buffer so that O.D.600nm was ~30.
# To measure hexose transport, we utilized entrance counter-flow assay. Transport was performed in a volume of 100 μL of 100 mM KPi (pH 7.5) buffer containing radioactive ^14C-hexose (4 μM fructose or 5 μM glucose) with inhibitors added before initiation of transport. Radioactive substrate uptake in GLUT1 and GLUT5 (wild-type or mutant) proteoliposomes was constant between 1 and 2 mins. The reaction was started by the addition of 3 μL concentrated proteoliposomes to the above solution and incubated at room temperature; the transport was stopped after one minute by addition of ice-chilled quench buffer [100 mM KPi (pH 5.5) and 100 mM LiCl]. The solution was filtered through a 0.4 μm pore size cellulose nitrate membrane filter (Whatman), and the filter was washed three times with quench buffer. The membrane filter was placed into a vial filled with BioSafe II scintillation liquid (Research Products International Corp.), and radioactivity was quantified with LS 6500 scintillation counter (Beckman). […] The transport assays were unaffected by 5% DMSO. Data is presented as relative activity normalized to radioactivity of no inhibitor added as 100% and empty proteoliposomes as 0%. Kinetic parameters were fitted by nonlinear algorithm plots using Prism (GraphPad Software).
# human GLUT5 = target: T2, human GLUT5 (Homo sapiens, UniProt P22732); assay: entrance counter-flow transport assay, GLUT5-mediated fructose transport in proteoliposomes; assay type: biochemical; settings: added at 20 mM
# T2 construct: Full length DNA was subcloned into pFastBac1 (Life Technologies) vector with a N-terminal hexahistidine tag; hexahistidine (thrombin-cleavable) (N, cleaved yes); made in house; host or cells: Sf21 insect cells (baculovirus, pFastBac1)
# T2 sequence (P22732 1-501): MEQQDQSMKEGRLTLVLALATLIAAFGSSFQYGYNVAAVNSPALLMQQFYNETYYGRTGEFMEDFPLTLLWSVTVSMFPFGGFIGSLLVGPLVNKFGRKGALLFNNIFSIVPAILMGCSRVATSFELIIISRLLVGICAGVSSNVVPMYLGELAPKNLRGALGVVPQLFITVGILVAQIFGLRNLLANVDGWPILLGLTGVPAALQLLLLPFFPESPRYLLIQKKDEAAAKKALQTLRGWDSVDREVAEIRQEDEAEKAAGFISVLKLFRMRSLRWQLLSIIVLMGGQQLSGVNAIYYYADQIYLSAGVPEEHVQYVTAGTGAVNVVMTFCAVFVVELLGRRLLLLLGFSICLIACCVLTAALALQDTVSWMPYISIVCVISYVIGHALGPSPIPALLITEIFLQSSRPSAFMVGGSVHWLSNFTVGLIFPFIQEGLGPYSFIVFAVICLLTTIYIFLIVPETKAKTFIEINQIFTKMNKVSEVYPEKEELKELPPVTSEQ
# Source text: Human GLUT1 and GLUT5 were expressed recombinantly in insect cell culture. The purified proteins were reconstituted into proteoliposomes. To measure the inhibition of GLUT1 or GLUT5 transport activity we used entrance counter-flow transport assay.
# as §1
# To measure hexose transport, we utilized entrance counter-flow assay. Transport was performed in a volume of 100 μL of 100 mM KPi (pH 7.5) buffer containing radioactive ^14C-hexose (4 μM fructose or 5 μM glucose) with inhibitors added before initiation of transport. […] The reaction was started by the addition of 3 μL concentrated proteoliposomes to the above solution and incubated at room temperature; the transport was stopped after one minute by addition of ice-chilled quench buffer [100 mM KPi (pH 5.5) and 100 mM LiCl]. The solution was filtered through a 0.4 μm pore size cellulose nitrate membrane filter (Whatman), and the filter was washed three times with quench buffer. The membrane filter was placed into a vial filled with BioSafe II scintillation liquid (Research Products International Corp.), and radioactivity was quantified with LS 6500 scintillation counter (Beckman). […] Data is presented as relative activity normalized to radioactivity of no inhibitor added as 100% and empty proteoliposomes as 0%. Kinetic parameters were fitted by nonlinear algorithm plots using Prism (GraphPad Software).
# GLUT1 [4] = settings: read-out: GLUT1 Km for glucose; cited from earlier work
# [5] = set-up: method as in PMID 22133440; settings: cited from earlier work
# GLUT5 [6] = system: GLUT5; set-up: method as in PMID 9166863; settings: read-out: GLUT5 Km for fructose; cited from earlier work
# [7] = set-up: method as in PMID 22133440; settings: cited from earlier work; remark: listed apart in the source
molecule,measurement,setting,value
C=C1[C@@H](C)[C@H]2[C@H](Cc3ccccc3)NC(=O)[C@]23OC(=O)/C=C/[C@H](O)CCC[C@@H](C)C/C=C/[C@H]3[C@@H]1O [cytochalasin B],inhibition of human GLUT4,human GLUT4,inhibit
same,inhibition of human GLUT2,human GLUT2,inhibit
same,inhibition of GLUT1 activity,GLUT1 [1],inhibitors
same,inhibition of GLUT5,GLUT5 [2],not GLUT5
same,inhibition of bacterial glucose/H+ symporter GlcPSe,[3],inhibit
C=C[C@@]1(C)CC(=O)[C@]2(O)[C@@]3(C)[C@@H](O)CCC(C)(C)[C@@H]3[C@H](O)[C@H](OC(C)=O)[C@@]2(C)O1 [forskolin],inhibition of human GLUT4,human GLUT4,inhibit
same,inhibition of human GLUT2,human GLUT2,inhibit
same,inhibition of GLUT1 activity,GLUT1 [1],inhibitors
same,inhibition of GLUT5,GLUT5 [2],not GLUT5
same,inhibition of bacterial glucose/H+ symporter GlcPSe,[3],inhibit
OC[C@H]1O[C@H](O[C@H]2[C@H](O)[C@@H](O)C(O)O[C@@H]2CO)[C@H](O)[C@@H](O)[C@@H]1O (mixture of isomers) [maltose],GLUT1 transport activity (relative glucose transport),human GLUT1; 20 mM compound,~ 80%
same,inhibition of GLUT5 fructose transport activity,human GLUT5,neither maltose nor maltohexaose (6 glucose units) inhibited GLUT5
OC[C@H]1OC(O)[C@H](O)[C@@H](O)[C@@H]1O (some centres unmarked) [glucose],Km,GLUT1 [4],~3 mM
Astragalin-6-glucoside [Ast6G],inhibition of GLUT1 glucose transport activity,human GLUT1,not inhibited; also recorded: did not inhibit
same,redox scavenging properties compared to astragalin,[5],increased redox scavenging properties
O=C(CO)[C@@H](O)[C@H](O)[C@H](O)CO [fructose],Km,GLUT5 [6],~10 mM
O=c1c(O[C@@H]2O[C@H](CO)[C@@H](O)[C@H](O)[C@H]2O)c(-c2ccc(O)cc2)oc2cc(O)cc(O)c12 [astragalin],solubility in water,[7],insoluble in water
same,inhibition of GLUT5 fructose transport activity,human GLUT5,neither maltohexaose nor astragalin alone inhibit GLUT5
maltohexaose,inhibition of GLUT1 glucose transport activity,human GLUT1,not inhibited
same,inhibition of GLUT5 fructose transport activity,human GLUT5,neither maltose nor maltohexaose (6 glucose units) inhibited GLUT5; also recorded: neither maltohexaose nor astragalin alone inhibit GLUT5
